According to EP1433789A1, “Pyrrolopyrazines and their use as selective apoptosis inducers” (Aponetics AG, priority 2002, dated 2004):

Assays:
Jurkat [1] = experiment: Hoechst 33342 nuclear staining (Table 3); type: cell-based, human; design: key: 0 relating to no activity; 1 relating to weak activity comprising less than 50% of the cells; score 2 relating to strong activity comprising more than 50% of the cells
Procedure: (§1) This assay is performed in 96 well tissue culture plates. Appropriate number of cells (adherent cells: 3 - 5*10^3, suspension cells: 8 - 10*10^3) are being seeded out in 80 µl complete medium. Adherent cells are incubated for 24 h for proper spreading out before addition of test compounds while suspension cells are immediately treated with test compounds after seeding out. The test compounds are added in 20 µl complete medium containing max 5% DMSO. The final compound concentrations in the assays are 10 µM, 3 µM,1 µM and 0.3 µM, respectively. After 24 h or 48 h incubation at culture conditions, 10 µl medium containing Hoechst 33342 dye (Sigma B-2261) at 2-5 µg/ml are added to each well. The assay plates are then further incubated for 30 minutes and subsequently analyzed with a standard inverted fluorescence microscope. The readout allows the determination of the fraction of apoptotic nuclei as well as other morphological criteria specific for apoptosis as a function of the treatment. The following scores are used: 0 relating to no activity, 1 relating to weak activity comprising less than 50% of the cells and score 2 relating to strong activity comprising more than 50% of the cells.

K562 = experiment: Hoechst 33342 nuclear staining (Table 3); type: cell-based, human; design: key: 0 relating to no activity; 1 relating to weak activity comprising less than 50% of the cells; score 2 relating to strong activity comprising more than 50% of the cells
Procedure: as §1

KB = experiment: Hoechst 33342 nuclear staining (Table 3); type: cell-based, human; design: key: 0 relating to no activity; 1 relating to weak activity comprising less than 50% of the cells; score 2 relating to strong activity comprising more than 50% of the cells
Procedure: as §1

HeLa [2] = experiment: Hoechst 33342 nuclear staining (Table 3); type: cell-based, human; design: key: 0 relating to no activity; 1 relating to weak activity comprising less than 50% of the cells; score 2 relating to strong activity comprising more than 50% of the cells
Procedure: as §1

A20 = experiment: AnnexinV/7-AAD staining; type: cell-based, mouse; conditions: A20, 10 µM, 24 h treatment
Procedure: (§2) Adherent cells (1 - 2*10^5) are 24 h prior to compound treatment seeded into 24 well tissue culture plates. Suspension cells are pipetted into P-tubes immediately before treatment. Test compounds are added leading to a final concentrations of 10 µM. After 24 h treatment cells are harvested (in case of adherent cells by trypsinization) and transferred to FACS tubes (BD Biosciences). After centrifugation and removal of the supernatant, 100 µl complete medium containing AnnexinV-GST (10 µg) is added, mixed and incubated at 4°C for 30 minutes. Subsequently, the cells are washed once with medium and incubated with 100 µl anti-GST Alexa 488 (Molecular Probes A-11131) in medium diluted 1:500 for 30 minutes at 4°C. Then, cells are washed once and stained with 1 µg/ml 7-aminoactinomycin D (7-AAD) (Molecular Probes A-1310) in 250 µl medium and analyzed on the FACSCalibur™. AnnexinV is measured in FL1 whereas 7-AAD is measured in FL3. In Table 5 the percentage of positively stained cells after treatment with the respective compounds are indicated. The following scores are used: Score 0 relates to less than 10%, score 1 relates to more than 10% but less than 50% and score 2 relates to more than 50% positivity.

Jurkat [3] = experiment: AnnexinV/7-AAD staining; type: cell-based, human; conditions: 10 µM, 24 h treatment
Procedure: as §2

Ramos = experiment: AnnexinV/7-AAD staining; type: cell-based, human; conditions: 10 µM, 24 h treatment
Procedure: as §2

HeLa [4] = experiment: AnnexinV/7-AAD staining; type: cell-based, human; conditions: 10 µM, 24 h treatment
Procedure: as §2

Structure (SMILES): CC1(C)Cc2ccccc2-c2cc3nc4ccccc4nc3n21 [No. 1, 6,6-Dimethyl-5,6-dihydro-6a,7,12-triaza-dibenzo[a,h]fluorene]
- Hoechst 33342 nuclear staining (Jurkat [1]; 24h, conc 0.3 (µM)): 1 (1 relating to weak activity comprising less than 50% of the cells)
- Hoechst 33342 nuclear staining (Jurkat [1]; 24h, conc 1 (µM)): 1 (1 relating to weak activity comprising less than 50% of the cells)
- Hoechst 33342 nuclear staining (Jurkat [1]; 24h, conc 3 (µM)): 2 (score 2 relating to strong activity comprising more than 50% of the cells)
- Hoechst 33342 nuclear staining (Jurkat [1]; 24h, conc 10 (µM)): 2 (score 2 relating to strong activity comprising more than 50% of the cells)
- Hoechst 33342 nuclear staining (Jurkat [1]; 48h, conc 0.3 (µM)): 2 (score 2 relating to strong activity comprising more than 50% of the cells)
- Hoechst 33342 nuclear staining (Jurkat [1]; 48h, conc 1 (µM)): 2 (score 2 relating to strong activity comprising more than 50% of the cells)
- Hoechst 33342 nuclear staining (Jurkat [1]; 48h, conc 3 (µM)): 2 (score 2 relating to strong activity comprising more than 50% of the cells)
- Hoechst 33342 nuclear staining (Jurkat [1]; 48h, conc 10 (µM)): 2 (score 2 relating to strong activity comprising more than 50% of the cells)
- Hoechst 33342 nuclear staining (K562; K562, 24h, conc 0.3 (µM)): 0
- Hoechst 33342 nuclear staining (K562; K562, 24h, conc 1 (µM)): 0
- Hoechst 33342 nuclear staining (K562; K562, 24h, conc 3 (µM)): 0
- Hoechst 33342 nuclear staining (K562; K562, 48h, conc 0.3 (µM)): 0
- Hoechst 33342 nuclear staining (K562; K562, 48h, conc 1 (µM)): 1 (1 relating to weak activity comprising less than 50% of the cells)
- Hoechst 33342 nuclear staining (K562; K562, 48h, conc 3 (µM)): 2 (score 2 relating to strong activity comprising more than 50% of the cells)
- Hoechst 33342 nuclear staining (K562; K562, 48h, conc 10 (µM)): 2 (score 2 relating to strong activity comprising more than 50% of the cells)
- Hoechst 33342 nuclear staining (KB; 24h, conc 0.3 (µM)): 0
- Hoechst 33342 nuclear staining (KB; 24h, conc 1 (µM)): 0
- Hoechst 33342 nuclear staining (KB; 24h, conc 3 (µM)): 0
- Hoechst 33342 nuclear staining (KB; 24h, conc 10 (µM)): 0
- Hoechst 33342 nuclear staining (KB; 48h, conc 0.3 (µM)): 0
- Hoechst 33342 nuclear staining (KB; 48h, conc 1 (µM)): 0
- Hoechst 33342 nuclear staining (KB; 48h, conc 3 (µM)): 0
- Hoechst 33342 nuclear staining (KB; 48h, conc 10 (µM)): 0
- Hoechst 33342 nuclear staining (HeLa [2]; 24h, conc 0.3 (µM)): 0
- Hoechst 33342 nuclear staining (HeLa [2]; 24h, conc 1 (µM)): 0
- Hoechst 33342 nuclear staining (HeLa [2]; 24h, conc 3 (µM)): 0
- Hoechst 33342 nuclear staining (HeLa [2]; 24h, conc 10 (µM)): 0
- Hoechst 33342 nuclear staining (HeLa [2]; 48h, conc 0.3 (µM)): 0
- Hoechst 33342 nuclear staining (HeLa [2]; 48h, conc 1 (µM)): 2 (score 2 relating to strong activity comprising more than 50% of the cells)
- Hoechst 33342 nuclear staining (HeLa [2]; 48h, conc 3 (µM)): 2 (score 2 relating to strong activity comprising more than 50% of the cells)
- Hoechst 33342 nuclear staining (HeLa [2]; 48h, conc 10 (µM)): 2 (score 2 relating to strong activity comprising more than 50% of the cells)
- percentage of positively stained cells (AnnexinV/7-AAD staining) (A20): 0 (Score 0 relates to less than 10%)
- percentage of positively stained cells (AnnexinV/7-AAD staining) (Jurkat [3]): 0 (Score 0 relates to less than 10%)
- percentage of positively stained cells (AnnexinV/7-AAD staining) (Ramos): 1 (score 1 relates to more than 10% but less than 50%)
- percentage of positively stained cells (AnnexinV/7-AAD staining) (HeLa [4]): 1 (score 1 relates to more than 10% but less than 50%)
